# Measured values reported in US20100113599A1, “AMPHIPATHIC CARBOXYLATES FOR THE TREATMENT OF IMMUNE-RELATED DISORDERS” (Syndromex Ltd. c/o Yissum Research Development Company, of, priority 2007, published 2010).
# How the values were obtained:
# [1] = system: Experimental Autoimmune Encephalomyelitis (EAE); test: EAE (MOG35-55) model for MS, clinical score; format: in vivo, female C57BL/6 mice; details: for day of fully established EAE: control day 24
# gp130 transcript = gp130 transcript levels in HepG2 cells (real time RT-PCR); format: cell-based, human; details: 200 μM up to 40 h (2, 4, 8, 24, 40 h), normalized with GAPDH
# Procedure: As shown by FIGS. 5-7, treatment of M16αα results in reduction in the protein levels of gp130, which is the tyrosine kinase receptor upstream to STAT3 in this pathway. The inventors thus next examined whether M16αα affects gp130 at the transcription level. Therefore, HepG2 cells were incubated with M16αα (200 μM) for up to 40 h. Total RNA was prepared at 2 h, 4 h, 8 h, 24 h and 40 h, and gp130 transcription was analyzed by real time RT-PCR and normalized with GAPDH.
# STAT3 [2] = test: IL-6-induced STAT3 phosphorylation in Hek293 kidney cells (Western blot); format: cell-based; details: 250 μM 9 h, serum free medium 0.2% Albumin, IL-6 20 ng/ml last 5.5 h
# Procedure: Hek293 cells were incubated for 9 h with M16αα (250 μM) in serum free medium containing 0.2% Albumin. IL-6 (20 ng/ml) was added during the last 5.5 h period. Western blots of cell lysates were reacted with anti gp130 and anti P-STAT3 (Y705) antibodies and normalized by β-actin. Abbreviations: cont. (control).
# (§1) The examined effect of MEDICA drugs on expression of APP, was further analyzed by analyzing the effect of M16αα on downstream elements in the signaling pathway leading to expression of APP. Signal Transducers and Activators of Transcription 3 (STAT3), is a transcription factor phosphorylated by JAK kinases in response to cytokine activation of a cell surface receptor tyrosine kinases. Cytokines that activate STAT3 include growth hormone, IL-6 family cytokines, Oncostatin, LIF, CNTF and G-CSF, Leptin and others. As illustrated by FIG. 1, upon cytokine activation, the STAT3 proteins dimerize and are localized to the nucleus where they activate transcription of APP as well as of other cytokine-responsive genes coding for cell survival, growth and proliferation. Therefore, the inventors next examined whether the effect of MEDICA drugs on the expression of APP is a result of interfering with STAT3 transcription activity or whether MEDICA drugs are involved in a more upstream element of the transduction pathway such as the gp130 receptor. […]
# STAT3 [3] = test: LIF- or IL-6-induced STAT3 phosphorylation in HepG2 cells (Western blot); format: cell-based, human
# Procedure: MEDICA drugs inhibit LIF-induced STAT3 phosphorylation. HepG2 cells were incubated with M16αα (200 μM) for 17 and 24 h. At each time point LIF (20 ng/ml) was added for the last 20 minutes (for protein) or for the last 3 h (for mRNA). Western blots of cell lysates were reacted with anti gp130 and anti P-STAT3 (Y705) antibodies and normalized by β-actin.
# MEDICA drugs inhibit IL-6-induced STAT3 phosphorylation. HepG2 cells were incubated for 40 h with […] M16αα. IL-6 (20 ng/ml) was added for the last 15 h. Western blots of cell lysates were reacted, with anti GP-130, anti STAT3, anti P-STAT3 (Y705) and anti P-STAT3 (S727) antibodies and normalized by β-actin. Abbreviations: cont. (control), dim. (dimer), Tot. (total), mono. (monomer).
# as §1, with “receptor. Since dimerization and activation of STAT3 is dependent on its phosphorylation in both, tyrosine 705 (pY^705) and serine 727 (pS^727) residues, the inventors next examined the effect of M16αα on the phosphorylation of STAT3. Thus, HepG2 cells were incubated with M16αα (200 μM) for 17 and 24 h.” for “receptor.”
# RPMI8226 cells = test: Cell cycle arrest markers in MM RPMI8226 cells (Western blot); format: cell-based; details: 200 μM, 24 h
# Procedure: Cell Cycle arrest of MM RPMI8226 by M16αα. RPMI8226 cells were cultured with 200 μM M16αα, in RPMI 1640 medium with 10% FCS for 24 h, lysed, Western blotted and reacted with anti p-P53(S15) and p-Rb as indicated.
# HT29 colon cancer cells = test: BrdU incorporation assay in HT29 colon cancer cells; format: cell-based; details: 200 μM
# Procedure: Cells were cultured in Dulbecco's Modified Eagle Medium (DMEM) supplemented with 10% fetal calf serum, glutamine and antibiotics (100,000 units/L penicillin and 100 mg/L streptomycin sulfate).
# The involvement of MEDICA drugs in signal transduction pathways related to immuno-modulatory mechanisms have led the inventors to further investigate the effect of the MEDICA drugs in different disorders associated with abnormal immune reaction. Since cancerous processes may be promoted as a result of interruption of the Th1/Th2 balance, the possible beneficial effect of the MEDICA drugs on tumor proliferation and progression have been next examined. The effect of different concentrations M16αα on cell proliferation was first examined in vitro using the HT29 colon cancer cells as a model for colon cancer. Cells were cultured in the presence of different concentrations of M16αα (50, 100, and 200 μM). Samples obtained from days 1, 2, 3 and 6 were analyzed for cell number using the trypan blue exclusion assay. Proliferation was measured by BrdU incorporation assay.
# gp130 = test: Overexpressed gp130 protein levels in transfected Hek293 cells (Western blot); format: cell-based; details: Hek293 transfected with gp130 expression vector; 200 mM M16αα 9 h, 20 h after transfection
# Procedure: Hek293 cells were transfected with an expression vector for gp130. Following 20 h M16αα ([…]) was added for 9 h. Western blots of cell lysates were reacted with anti gp130 antibodies and normalized by β-actin. Abbreviations: cont. (control).
# In order to examine the mode of action of M16αα in reducing gp130 protein levels, Hek293 cells were transfected with an expression vector for the gp130 protein. Following 20 h after transfection, M16αα ([…]) was added for 9 h. Western blots of cells lysates were reacted with anti-gp130 antibodies and normalized by β-actin. […] This effect was clearer when smaller amounts of plasmid were used for transfection (0.2 microgram).
# [4] = 200 mM M16αα 40 h, IL-6 20 ng/ml last 15 h
structure (smiles),measurement,setting,value
"CC(C)(CCCCCCCCCCCCC(C)(C)C(=O)O)C(=O)O [M16αα, 2,2,15,15-tetramethyl-hexadecanedioic acid]",average maximal clinical score,"[1]; Preventive Group A: 30 mg/kg BW daily from three days prior to MOG challenge to day 37, control group D 4.3",1.3
same,average maximal clinical score upon termination of treatment,"[1]; Preventive Group A: after termination of treatment (vehicle day 37 to day 52), control group D 4.3",~2.0
same,average maximal clinical score,"[1]; group B: 30 mg/kg BW daily from seventh day following MOG injection to day 52, control group D 4.3",4.3
same,day of fully established EAE,[1]; group B: 30 mg/kg BW daily from seventh day to day 52,40 days
same,day of fully established EAE,[1]; group C: 30 mg/kg BW daily from first day to day 52,40 days
same,average maximal clinical score,"[1]; group C: 30 mg/kg BW daily from first day to day 52, control group D 4.3",3.8
same,gp130 transcript levels,gp130 transcript,remained unaffected
same,IL-6-induced phosphorylation of STAT3 Y705,STAT3 [2],Inhibition
same,LIF-induced phosphorylation of tyrosine 705 residue of STAT3,"STAT3 [3]; 200 μM for 17 and 24 h, LIF 20 ng/ml",clearly inhibits
same,expression of STAT3 (total STAT3),STAT3 [3]; [4],not affected
same,phosphorylation of STAT3 serine 727 residue,STAT3 [3]; [4],significantly inhibited
same,phosphorylated Rb,RPMI8226 cells,reduction
same,phosphorylated p53,RPMI8226 cells,increase
same,BrdU incorporation,HT29 colon cancer cells,significantly reduces
same,gp130 protein levels (overexpressed),gp130,clear reduction
